How the values were obtained:
Staphylococcus aureus 6 = assay: antimicrobial activity, minimal inhibitory concentration (agar streak); assay type: cell-based; conditions: heart infusion agar, 37° C., 20 hours, overnight culture 10^8 viable cells per ml
Method: (§1) One loopful of an overnight culture of each test strain in Trypticase-soy broth (10^8 viable cells per ml.) was streaked on heart infusion agar (HI-agar) containing graded concentrations of antibiotics, and the minimal inhibitory concentration (MIC) was expressed in terms of μg/ml after incubation at 37° C. for 20 hours.

[1] = system: Pseudomonas aeruginosa NCTC-10490; assay: as above; assay type: cell-based; conditions: NCTC10490, heart infusion agar, 37° C., 20 hours, overnight culture 10^8 viable cells per ml
Method: as §1

In the case of `CC(C)(O)[C@@H]1C(=O)N2C(C(=O)[O-])=C(SCCN)C[C@H]12.[K+]` [potassium (5R,6R)-3-(2-aminoethylthio)-6-(1-hydroxy-1-methylethyl)-7-oxo-1-azabicyclo[3.2.0]hept-2-ene-2-carboxylate], the MIC (Staphylococcus aureus 6) is reported as 1.56 µg/mL and the MIC [1] is reported as 12.5 µg/mL.

Reference: patent US4539152A, “4-Substituted-2-oxoazetidine compounds” (Fujisawa Pharmaceutical Co., Ltd., priority 1980, dated 1985)
